Data published in patent US20120058999A1, “Substituted Tetrahydropyrrolopyrazine Compounds” (Gruenenthal GmbH, priority 2010, published 2012).

What was measured:
rat B1R = biological target: T1, rat B1R (Rattus norvegicus, UniProt P97583); test: Functional investigation on the bradykinin 1 receptor, cell-based fluorescent calcium-mobilization assay (FLIPR), rat; details: 10 μM test substance; CHO K1 cells transfected with rat B1R gene; agonist Des-Arg9-bradykinin at EC80; % of maximum achievable inhibition
T1 construct: expressed in transfected cells; host or cells: CHO K1 cells (stably transfected)
T1 sequence (P97583 1-337): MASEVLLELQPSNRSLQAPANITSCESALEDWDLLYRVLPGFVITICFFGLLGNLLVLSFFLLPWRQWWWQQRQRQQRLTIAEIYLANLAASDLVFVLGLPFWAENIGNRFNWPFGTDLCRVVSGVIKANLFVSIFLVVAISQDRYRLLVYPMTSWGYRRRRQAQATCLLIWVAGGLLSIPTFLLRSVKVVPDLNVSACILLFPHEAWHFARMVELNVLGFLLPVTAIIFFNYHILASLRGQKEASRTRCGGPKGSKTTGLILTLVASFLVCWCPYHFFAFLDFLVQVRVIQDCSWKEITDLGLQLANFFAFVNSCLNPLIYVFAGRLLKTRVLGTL
Method: (§1) The agonistic or antagonistic action of substances can be quantified on the bradykinin 1 receptor (B1R) of the human and rat species with ectopically expressing cell lines (CHO K1 cells) and with the aid of a Ca2+-sensitive dye (Fluo-4) using a fluorescent imaging plate reader (FLIPR). The value in % activation is based on the Ca2+ signal after addition of Lys-Des-Arg9 bradykinin (0.5 nM) or Des-Arg9 bradykinin (100 nM). Antagonists lead to a suppression of the Ca2+ influx following administration of the agonist. The % inhibition in comparison with the maximum achievable inhibition is indicated.
(§2) The agonistic or antagonistic action of substances can be determined on the bradykinin 1 receptor (B1R) of humans and rats by means of a cell-based fluorescent calcium-mobilization assay. According to this assay agonist-induced increase of intracellular free Ca^2+ is quantified by means of a Ca^2+-sensitive dye (Fluo-4 type, Molecular Probes Europe BV, Leiden, Netherlands), in a Fluorescent Imaging Plate Reader (FLIPR, Molecular Devices, Sunnyvale, USA) and/or the Novostar (BMG Labtech GmbH, Offenburg, Germany).
(§3) Chinese hamster ovary cells (CHO K1 cells), which are stably transfected with the human B1R gene (hB1R cells), or with the B1R gene of rats (rB1R cells) are used. For functional investigations these cells are seeded into black 96-well plates with a clear bottom (BD Biosciences, Heidelberg, Germany or Greiner, Frickenhausen, Germany) in a density of 20,000-35,000 cells/well. The cells are incubated overnight in a humidified atmosphere at 37° C. and 5% CO2 in culture medium (hB1R cells: Nutrient Mixture Ham's F12, Gibco Invitrogen GmbH, Karlsruhe, Germany or DMEM, Sigma-Aldrich, Taufkirchen, Germany; rB1R cells: D-MEM/F12, Gibco Invitrogen GmbH, Karlsruhe, Germany) with 10 vol. % FBS (foetal bovine serum, Gibco Invitrogen GmbH, Karlsruhe, Germany). On the following day the cells are loaded with the Ca^2+-sensitive dye Fluo-4-AM (Molecular Probes Europe BV, Leiden, Netherlands):
(§4) Method A: The medium of the cells is removed and cell plates are incubated with loading solution, which contains 2.13 μM Fluo-4-AM, 2.5 mM probenecid (Sigma-Aldrich, Taufkirchen, Germany), and 10 mM HEPES (Sigma-Aldrich, Taufkirchen, Germany) in HBSS buffer (Hank's buffered saline solution, Gibco Invitrogen GmbH, Karlsruhe, Germany) for 60 minutes at 37° C. After the plates are washed twice with HBSS buffer, HBSS buffer supplemented 0.1% BSA (bovine serum albumin; Sigma-Aldrich, Taufkirchen, Germany), 5.6 mM glucose and 0.05% gelatine (Merck KGaA, Darmstadt, Germany) is added. Cell plates are incubated for at least 20 minutes in the dark at room temperature before they are used for the Ca^2+ measurement in the FLIPR or Novostar. Method B: The plates are washed with buffer A (15 mM HEPES, 80 mM NaCl, 5 mM KCl, 1.2 mM CaCl2, 0.7 mM MgSO4, 2 mg/ml glucose, 2.5 mM probenecid) and subsequently loaded with buffer A containing 2.4 μM Fluo-4-AM and 0.025% pluronic F127 (Sigma-Aldrich, Taufkirchen, Germany) for 60 minutes at 37° C. Cell plates are washed twice with buffer A. Then, buffer A supplemented with 0.05% BSA and 0.05% gelatine is added and cell plates are incubated in the dark at room temperature for at least 20 minutes before measurement in the FLIPR or Novostar is started.
(§5) The Ca^2+-dependent fluorescence is measured both before and after the addition of substances (λex=488 nm, λem=540 nm). For quantification of the effect the highest fluorescence intensity (FC, fluorescence counts) over time is given.
(§6) The FLIPR protocol consists of two substance additions, done within the instrument while continuously monitoring the Ca^2+-dependent fluorescence at 540 nm. When the Novostar was used, one addition had to be done outside the instrument. First of all test substances (10 μM) are pipetted onto the cells and the intracellular Ca^2+ rise is compared with the control (hB1R: Lys-Des-Arg9-bradykinin >=50 nM; rB1R: Des-Arg9-bradykinin >=1 μM). […]

human B1R = biological target: T2, human B1R (Homo sapiens, UniProt P46663); test: Functional investigation on the bradykinin 1 receptor, cell-based fluorescent calcium-mobilization assay (FLIPR), human; details: 10 μM test substance; CHO K1 cells transfected with human B1R gene; agonist Lys-Des-Arg9-bradykinin at EC80; % of maximum achievable inhibition
T2 construct: expressed in transfected cells; host or cells: CHO K1 cells (stably transfected)
T2 sequence (P46663 1-353): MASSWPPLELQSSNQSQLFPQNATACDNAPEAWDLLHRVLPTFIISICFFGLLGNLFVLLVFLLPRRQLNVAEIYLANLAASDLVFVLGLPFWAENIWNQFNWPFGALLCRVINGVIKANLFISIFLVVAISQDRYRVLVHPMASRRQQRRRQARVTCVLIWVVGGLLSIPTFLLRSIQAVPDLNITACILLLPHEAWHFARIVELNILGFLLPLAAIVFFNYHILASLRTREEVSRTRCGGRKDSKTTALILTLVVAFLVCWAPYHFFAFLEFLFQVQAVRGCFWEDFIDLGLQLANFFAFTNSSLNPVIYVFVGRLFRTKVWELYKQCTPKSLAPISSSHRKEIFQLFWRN
Method: as §1, §2, §3, §4, §5, §6

SMILES	inhibition at 10 µM (rat B1R) [%]	inhibition at 10 µM (human B1R) [%]
COc1ccc2cc(S(=O)(=O)N3CCn4cccc4C3CC(=O)N(C)[C@H]3CCC[C@@H](N4CCN(C)CC4)C3)ccc2c1 (relative stereo) [CC-04, 2-[2-[(6-Methoxy-naphthalen-2-yl)sulfonyl]-1,2,3,4-tetrahydro-pyrrolo[1,2-a]pyrazin-1-yl]-N-methyl-N-[cis-3-(4-methyl-piperazin-1-yl)-cyclohexyl]-acetamide]	103	100
CN1CCN([C@@H]2CCC[C@H](N(C)C(=O)CCC3c4cccn4CCN3S(=O)(=O)c3cccc(C(F)(F)F)c3)C2)CC1 (relative stereo) [CC-05, N-Methyl-N-[cis-3-(4-methyl-piperazin-1-yl)-cyclohexyl]-3-[2-[[3-(trifluoromethyl)phenyl]sulfonyl]-1,2,3,4-tetrahydro-pyrrolo[1,2-a]pyrazin-1-yl]-propionamide]	91	43
COc1ccc2cc(S(=O)(=O)N3CCn4cccc4C3CC(=O)N[C@H]3CCC[C@@H](N4CCN(C)CC4)C3)ccc2c1 (relative stereo) [CC-09, 2-[2-[(6-Methoxy-naphthalen-2-yl)sulfonyl]-1,2,3,4-tetrahydro-pyrrolo[1,2-a]pyrazin-1-yl]-N-[cis-3-(4-methyl-piperazin-1-yl)-cyclohexyl]-acetamide]	–	100
COc1cc(C)c(S(=O)(=O)N2CCn3cccc3C2COCC(=O)N(C)C2CCCC(N3CCN(C(C)C)CC3)C2)c(C)c1 (stereo not shown) [CC-50, N-[3-(4-Isopropyl-piperazin-1-yl)-cyclohexyl]-2-[[2-[(4-methoxy-2,6-dimethyl-phenyl)sulfonyl]-1,2,3,4-tetrahydro-pyrrolo[1,2-a]pyrazin-1-yl]-methoxy]-N-methyl-acetamide]	–	99
COc1ccc2cc(S(=O)(=O)N3CCn4cccc4C3CC(=O)N(C)C3CCCC(N4CCN(C(C)C)CC4)C3)ccc2c1 (stereo not shown) [CC-52, N-[3-(4-Isopropyl-piperazin-1-yl)-cyclohexyl]-2-[2-[(6-methoxy-naphthalen-2-yl)sulfonyl]-1,2,3,4-tetrahydro-pyrrolo[1,2-a]pyrazin-1-yl]-N-methyl-acetamide]	–	100
CC(C)N1CCN(C2CCCC(N(C)C(=O)CCC3c4cccn4CCN3S(=O)(=O)c3cccc(C(F)(F)F)c3)C2)CC1 (stereo not shown) [CC-53, N-[3-(4-Isopropyl-piperazin-1-yl)-cyclohexyl]-N-methyl-3-[2-[[3-(trifluoromethyl)phenyl]sulfonyl]-1,2,3,4-tetrahydro-pyrrolo[1,2-a]pyrazin-1-yl]-propionamide]	–	87
COc1ccc2cc(S(=O)(=O)N3CCn4cccc4C3CC(=O)N(C)C3CCCC(N4CCOCC4)C3)ccc2c1 (stereo not shown) [CC-56, 2-[2-[(6-Methoxy-naphthalen-2-yl)sulfonyl]-1,2,3,4-tetrahydro-pyrrolo[1,2-a]pyrazin-1-yl]-N-methyl-N-(3-morpholin-4-yl-cyclohexyl)-acetamide]	–	99
CN(C(=O)CCC1c2cccn2CCN1S(=O)(=O)c1cccc(C(F)(F)F)c1)C1CCCC(N2CCOCC2)C1 (stereo not shown) [CC-57, N-Methyl-N-(3-morpholin-4-yl-cyclohexyl)-3-[2-[[3-(trifluoromethyl)phenyl]sulfonyl]-1,2,3,4-tetrahydro-pyrrolo[1,2-a]pyrazin-1-yl]-propionamide]	–	39

Other lines, results leading:

inhibition at 10 µM (rat B1R) [%]	inhibition at 10 µM (human B1R) [%]	SMILES
105	100	COc1cc(C)c(S(=O)(=O)N2CCn3cccc3C2COCC(=O)N(C)[C@H]2CCC[C@@H](N3CCN(C)CC3)C2)c(C)c1 (relative stereo) [CC-01, 2-[[2-[(4-Methoxy-2,6-dimethyl-phenyl)sulfonyl]-1,2,3,4-tetrahydro-pyrrolo[1,2-a]pyrazin-1-yl]-methoxy]-N-methyl-N-[cis-3-(4-methyl-piperazin-1-yl)-cyclohexyl]-acetamide]
104	87	COc1cc(C)c(S(=O)(=O)N2CCn3cccc3C2CCCC(=O)N(C)[C@H]2CCC[C@@H](N3CCN(C)CC3)C2)c(C)c1 (relative stereo) [CC-02, 4-[2-[(4-Methoxy-2,6-dimethyl-phenyl)sulfonyl]-1,2,3,4-tetrahydro-pyrrolo[1,2-a]pyrazin-1-yl]-N-methyl-N-[cis-3-(4-methyl-piperazin-1-yl)-cyclohexyl]-butyramide]
100	96	COc1cc(C)c(S(=O)(=O)N2CCn3cccc3C2COCC(=O)N[C@H]2CCC[C@@H](N3CCN(C)CC3)C2)c(C)c1 (relative stereo) [CC-06, 2-[[2-[(4-Methoxy-2,6-dimethyl-phenyl)sulfonyl]-1,2,3,4-tetrahydro-pyrrolo[1,2-a]pyrazin-1-yl]-methoxy]-N-[cis-3-(4-methyl-piperazin-1-yl)-cyclohexyl]-acetamide]
–	99	COc1cc(C)c(S(=O)(=O)N2CCn3cccc3C2CCCC(=O)N(C)C2CCCC(N3CCN(C(C)C)CC3)C2)c(C)c1 (stereo not shown) [CC-51, N-[3-(4-Isopropyl-piperazin-1-yl)-cyclohexyl]-4-[2-[(4-methoxy-2,6-dimethyl-phenyl)sulfonyl]-1,2,3,4-tetrahydro-pyrrolo[1,2-a]pyrazin-1-yl]-N-methyl-butyramide]
–	98	COc1cc(C)c(S(=O)(=O)N2CCn3cccc3C2COCC(=O)N(C)C2CCCC(N3CCOCC3)C2)c(C)c1 (stereo not shown) [CC-54, 2-[[2-[(4-Methoxy-2,6-dimethyl-phenyl)sulfonyl]-1,2,3,4-tetrahydro-pyrrolo[1,2-a]pyrazin-1-yl]-methoxy]-N-methyl-N-(3-morpholin-4-yl-cyclohexyl)-acetamide]
–	88	COc1cc(C)c(S(=O)(=O)N2CCn3cccc3C2CCCC(=O)N(C)C2CCCC(N3CCOCC3)C2)c(C)c1 (stereo not shown) [CC-55, 4-[2-[(4-Methoxy-2,6-dimethyl-phenyl)sulfonyl]-1,2,3,4-tetrahydro-pyrrolo[1,2-a]pyrazin-1-yl]-N-methyl-N-(3-morpholin-4-yl-cyclohexyl)-butyramide]
